Reference: patent US10947213B1 (Merck Patent GmbH, priority 2015, dated 2021)
pIC50: −log10 of the molar value. Counter-ions that a name gives are not always drawn.

These compounds were tested against T1, TLR7/NFKb HEK cells (Homo sapiens, UniProt Q9NYK1) (assay: HEK Cell Assay (TLR7/NFKb reporter, Steady-Glo luciferase readout)). Conditions: 30 min compound preincubation, then R*48 agonist for 5 hours, read-out: Potency.
T1 construct: expressed in transfected cells; host or cells: HEK cells (TLR7/NFKb reporter line)
T1 sequence (Q9NYK1 27-1049): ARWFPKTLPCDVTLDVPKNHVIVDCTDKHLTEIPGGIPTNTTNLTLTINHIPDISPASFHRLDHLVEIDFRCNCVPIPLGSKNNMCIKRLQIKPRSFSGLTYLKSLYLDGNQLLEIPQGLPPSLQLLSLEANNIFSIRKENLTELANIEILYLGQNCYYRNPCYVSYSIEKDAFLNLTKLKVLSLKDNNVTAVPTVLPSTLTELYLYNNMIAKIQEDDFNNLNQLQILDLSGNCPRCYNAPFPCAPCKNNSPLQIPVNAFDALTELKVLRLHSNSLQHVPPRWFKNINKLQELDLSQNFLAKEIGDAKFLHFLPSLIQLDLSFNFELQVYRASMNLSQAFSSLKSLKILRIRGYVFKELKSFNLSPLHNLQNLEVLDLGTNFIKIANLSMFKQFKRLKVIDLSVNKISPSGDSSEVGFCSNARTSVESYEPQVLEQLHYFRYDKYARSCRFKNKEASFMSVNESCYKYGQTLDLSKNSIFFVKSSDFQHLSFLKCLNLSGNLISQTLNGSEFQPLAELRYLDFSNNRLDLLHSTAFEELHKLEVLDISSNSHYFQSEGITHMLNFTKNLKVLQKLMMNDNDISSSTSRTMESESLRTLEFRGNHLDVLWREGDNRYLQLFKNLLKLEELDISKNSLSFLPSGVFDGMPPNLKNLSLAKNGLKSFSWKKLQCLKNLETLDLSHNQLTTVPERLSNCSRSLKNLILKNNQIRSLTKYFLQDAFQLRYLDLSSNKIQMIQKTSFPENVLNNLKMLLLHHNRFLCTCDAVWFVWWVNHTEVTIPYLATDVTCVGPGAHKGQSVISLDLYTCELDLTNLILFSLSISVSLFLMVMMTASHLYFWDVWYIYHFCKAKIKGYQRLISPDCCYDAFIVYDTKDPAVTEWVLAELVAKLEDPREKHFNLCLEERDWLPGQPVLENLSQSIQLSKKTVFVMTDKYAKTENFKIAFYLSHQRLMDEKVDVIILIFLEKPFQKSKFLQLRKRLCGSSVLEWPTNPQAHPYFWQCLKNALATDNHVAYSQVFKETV
Format: cell-based
Experimental: Example 142: HEK Cell Assay
Into 384 CulturePlates (Corning 3707) was placed 5000 c/w of TLR7/NFKb HEK cells in 30 uL DMEM without Phenil red (gibco #31053) and 10% i.a. FCS and 2 mM L-ZGLutamin. The cells were incubated for 24 h at 37° C., 10% carbon dioxide and 90% relative humidity. 3 uL of controls, standards, and compounds were dispensed into wells, incubated for 30 min then 3 uL of R*48 agonist in 20 mM Hepes was added. After incubation for 5 hours, they were allowed to stand at room temperature for 15 min. To this was added 10 uL of Steady-Glo substrate reagent and shake assay plate for 5 min at 1500 rpm. The assay plate was allowed to sit for 30 min at room temperature and then the plate was read on EnVision.

| pIC50 | SMILES |
| --- | --- |
| 5.00 to 6.00 | CNC(=O)CCC(=O)NC1CC(C(F)(F)F)CN(c2ccc(C#N)c3ncccc23)C1 (racemic) [Compound 492, cis-(N-1-(8-Cyano-quinolin-5-yl)-5-trifluoromethyl-piperidin-3-yl]-N′-methyl-succinamide)] |
| > 6.00 | C[C@H]1C[C@@H](NC(=O)CC2CCN(C)C2)CN(c2ccc(C(F)(F)F)c3nccnc23)C1 (stereo partly drawn) [Compound 295, N-[(3R,5S)-5-methyl-1-[8-(trifluoromethyl)quinoxalin-5-yl]piperidin-3-yl]-2-(1-methylpyrrolidin-3-yl)acetamide] |
| < 5.00 | CN[C@@H]1C[C@H](C)CN(c2ccnc3nccnc23)C1 [Compound 17, (3R,5S)—N,5-dimethyl-1-(pyrido[2,3-b]pyrazin-8-yl)piperidin-3-amine] |
| 5.00 to 6.00 | C[C@@H]1C[C@@H](CN2CCC(N3CCOCC3)CC2)CN(c2ccc(C(F)(F)F)c3ncccc23)C1 (relative stereo) [Compound 536, trans-5-[3-Methyl-5-(4-morpholin-4-yl-piperidin-1-ylmethyl)-piperidin-1-yl]-8-trifluoromethyl-quinoline] |
| > 6.00 | C[C@H]1C[C@@H](NC(=O)CN2CCCN(C)CC2)CN(c2ccc(C(F)(F)F)c3nccnc23)C1 [Compound 362, 2-(4-methyl-1,4-diazepan-1-yl)-N-[(3R,5S)-5-methyl-1-[8-(trifluoromethyl)quinoxalin-5-yl]piperidin-3-yl]acetamide] |
| > 6.00 | C[C@H]1C[C@@H](NC(=O)[C@H](C)N)CN(c2ccc(C#N)c3nccnc23)C1 [Compound 25, (S)-2-amino-N-((3R,5S)-1-(8-cyanoquinoxalin-5-yl)-5-methylpiperidin-3-yl)propanamide] |
| < 5.00 | OC1CCC(NC2CC(C(F)(F)F)CN(c3ccnc4nccnc34)C2)CC1 (single isomer, unassigned) [Compound 93, cis,cis-4-((1-(pyrido[2,3-b]pyrazin-8-yl)-5-(trifluoromethyl)piperidin-3-yl)amino)cyclohexanol] |
| > 6.00 | CCN(CC)CCNC(=O)C1CCN(c2ccc(C#N)c3ncccc23)CC1 [Compound 407, 1-(8-Cyano-quinolin-5-yl)-piperidine-4-carboxylic acid (2-diethylamino-ethyl)-amide] |
| > 6.00 | O=C(N[C@@H]1CNC[C@@H]1F)C1CCN(c2ccc(C(F)(F)F)c3ncccc23)CC1 [Compound 464, 1-(8-Trifluoromethyl-quinolin-5-yl)-piperidine-4-carboxylic acid ((3R,4S)-4-fluoro-pyrrolidin-3-yl)-amide hydrochloride] |
| < 5.00 | Cc1cc2c(N3C[C@@H](C)O[C@@H](C)C3)ccnc2n1C [Compound 46, (2S,6R)-4-(1,2-dimethyl-1H-pyrrolo[2,3-b]pyridin-4-yl)-2,6-dimethylmorpholine] |
| > 6.00 | Cc1ncc(N2C[C@@H](C)C[C@@H](N)C2)c2cccnc12 [Compound 553, (3R,5S)-5-methyl-1-(8-methyl-1,7-naphthyridin-5-yl)piperidin-3-amine] |
| > 6.00 | C[C@H]1C[C@@H](NC(=O)CC2CCN(C)C2)CN(c2ccc(C(F)F)c3nccnc23)C1 (stereo partly drawn) [Compound 319, N-[(3R,5S)-1-[8-(difluoromethyl)quinoxalin-5-yl]-5-methylpiperidin-3-yl]-2-(1-methylpyrrolidin-3-yl)acetamide] |
| > 6.00 | CC(C)(C)CC(=O)N[C@H]1C[C@@H](C(F)(F)F)CN(c2ccc(C#N)c3ncccc23)C1 (relative stereo) [Compound 431, cis-N-[1-(8-Cyano-quinolin-5-yl)-5-trifluoromethyl-piperidin-3-yl]-3,3-dimethyl-butyramide] |
| > 6.00 | O=C(NC1CCN(CC2CC2)C1)C1CCN(c2ccc(C(F)(F)F)c3ncccc23)CC1 (single isomer, unassigned) [Compound 444] |
| 5.00 to 6.00 | C[C@H]1C[C@@H](NC(=O)CC2CC2(F)F)CN(c2ccc(C(F)F)c3nccnc23)C1 (stereo partly drawn) [Compound 322, 2-(2,2-difluorocyclopropyl)-N-[(3R,5S)-1-[8-(difluoromethyl)quinoxalin-5-yl]-5-methylpiperidin-3-yl]acetamide] |
| > 6.00 | C[C@H]1C[C@@H](O)CN(c2ccc(C#N)c3nccnc23)C1 [Compound 81, 8-[(3R,5S)-3-hydroxy-5-methylpiperidin-1-yl]quinoxaline-5-carbonitrile] |
| 5.00 to 6.00 | CC(C(=O)N[C@@H]1C[C@H](C)CN(c2ccc(C(F)(F)F)c3nccnc23)C1)N1CC(F)(F)C1 (stereo partly drawn) [Compound 299, 2-(3,3-difluoroazetidin-1-yl)-N-[(3R,5S)-5-methyl-1-[8-(trifluoromethyl)quinoxalin-5-yl]piperidin-3-yl]propanamide] |
| 5.00 to 6.00 | COc1ccc(N2C[C@@H](C)C[C@@H](NC(=O)CC(C)(C)C)C2)c2nccnc12 [Compound 202, N-[(3R,5S)-1-(8-methoxyquinoxalin-5-yl)-5-methylpiperidin-3-yl]-3,3-dimethylbutanamide] |
| < 5.00 | C[C@H]1C[C@@H](NC(=O)CNS(C)(=O)=O)CN(c2ccnc3nccnc23)C1 [Compound 141, 2-methanesulfonamido-N-[(3R,5S)-5-methyl-1-[pyrido[2,3-b]pyrazin-8-yl]piperidin-3-yl]acetamide] |
| < 5.00 | C[C@H]1C[C@@H](NC(=O)CNC(C)(C)C)CN(c2ccnc3nccnc23)C1 [Compound 143, 2-(tert-butylamino)-N-[(3R,5S)-5-methyl-1-[pyrido[2,3-b]pyrazin-8-yl]piperidin-3-yl]acetamide] |
| > 6.00 | C[C@H]1C[C@@H](NC(=O)CN2CCCN(C)CC2)CN(c2ccc(C#N)c3nccnc23)C1 [Compound 276, N-[(3R,5S)-1-(8-cyanoquinoxalin-5-yl)-5-methylpiperidin-3-yl]-2-(4-methyl-1,4-diazepan-1-yl)acetamide] |
| > 6.00 | C[C@@H]1CN(c2ccnc3nccnc23)C[C@H](CN2CCN(C)[C@@H](C)C2)O1 [Compound 53, (2S,6R)-2-(((S)-3,4-dimethylpiperazin-1-yl)methyl)-6-methyl-4-(pyrido[2,3-b]pyrazin-8-yl)morpholine] |
| > 6.00 | C[C@H]1C[C@@H](NC(=O)CN2CCCN(C)CC2)CN(c2ccc(C(F)F)c3ncccc23)C1 [Compound 314, N-[(3R,5S)-1-[8-(difluoromethyl)quinolin-5-yl]-5-methylpiperidin-3-yl]-2-(4-methyl-1,4-diazepan-1-yl)acetamide] |
| > 6.00 | C[C@H]1C[C@@H](NC(=O)CC2CCN(C)C2)CN(c2ccc(C#N)c3nccnc23)C1 (stereo partly drawn) [Compound 269, N-[(3R,5S)-1-(8-cyanoquinoxalin-5-yl)-5-methylpiperidin-3-yl]-2-(1-methylpyrrolidin-3-yl)acetamide] |
| > 6.00 | Cc1ncc(N2C[C@@H](C)C[C@@H](NC(=O)CC3CCN(C)C3)C2)c2cccnc12 (stereo partly drawn) [Compound 560, N-[(3R,5S)-5-Methyl-1-(8-methyl-[1,7]naphthyridin-5-yl)-piperidin-3-yl]-2-(1-methyl-pyrrolidin-3-yl)-acetamide] |
| > 6.00 | C[C@H]1C[C@@H](NC(=O)CN2CC(N)C2)CN(c2ccc(C(F)(F)F)c3ncccc23)C1 [Compound 280, 2-(3-aminoazetidin-1-yl)-N-[(3R,5S)-5-methyl-1-[8-(trifluoromethyl)quinolin-5-yl]piperidin-3-yl]acetamide] |
| > 6.00 | CCN(C)CCNC(=O)C1CCN(c2ccc(C(F)(F)F)c3ncccc23)CC1 [Compound 436, 1-(8-Trifluoromethyl-quinolin-5-yl)-piperidine-4-carboxylic acid [2-(ethyl-methyl-amino)-ethyl]-amide] |
| 5.00 to 6.00 | C[C@H]1C[C@@H](NC(=O)C2(N)CC2)CN(c2ccc(C#N)c3nccnc23)C1 [Compound 31, 1-amino-N-((3R,5S)-1-(8-cyanoquinoxalin-5-yl)-5-methylpiperidin-3-yl)cyclopropanecarboxamide hydrochloride] |
| > 6.00 | C[C@H]1C[C@@H](NC(=O)CC2CC2(F)F)CN(c2ccc(C(F)(F)F)c3nccnc23)C1 (stereo partly drawn) [Compound 298, 2-(2,2-difluorocyclopropyl)-N-[(3R,5S)-5-methyl-1-[8-(trifluoromethyl)quinoxalin-5-yl]piperidin-3-yl]acetamide] |
